Laboratory results reported in ChEMBL document CHEMBL5143658, “Synthesis and biological evaluation of imidamide analogs as selective anti-trypanosomal agents” (Bioorg Med Chem, 2022).
Active and inactive are the calls of the source. The calls are words filed in the database; no cut-off is given here.

Experiments:
Trypanosoma brucei [1] = assay: Antitrypanosomal activity against blood stream form of Trypanosoma brucei Lister 427 assessed as inhibition of parasite growth incubated for 48 hrs by MTS assay; type: functional, organism-based; conditions: Lister 427, 48 h
[2] = Selectivity index, ratio of IC50 for cytotoxicity against HEK293 cells to IC50 for antitrypanosomal activity against blood stream form of Trypanosoma brucei Lister 427; type: toxicity, cell-based; conditions: human, read-out: Ratio IC50
[3] = Cytotoxicity against HEK293 cells assessed as inhibition of cell growth incubated for 48 hrs by MTT assay; type: toxicity, cell-based; conditions: human
[4] = Selectivity index, ratio of IC50 for cytotoxicity against mouse RAW264.7 cells to IC50 for antitrypanosomal activity against blood stream form of Trypanosoma brucei Lister 427; type: toxicity, cell-based; conditions: read-out: Ratio IC50
[5] = Cytotoxicity against mouse RAW264.7 cells assessed as inhibition of cell growth incubated for 48 hrs by MTT assay; type: toxicity, cell-based
Trypanosoma brucei [6] = assay: Inhibition of tubulin polymerization in blood stream form of Trypanosoma brucei Lister 427 assessed as reduction in polymerized tubulin level incubated for 12 hrs by Western blot analysis; conditions: dose 200-1000 nM

N=C(N)Nc1ccc(NC(=O)c2ccc3c(c2)OCO3)cc1OCc1cccc(C(F)(F)F)c1
IC50 (Trypanosoma brucei [1]): 33.7 µM
selectivity ratio [2]: 9.3
IC50 at 48 h [3]: 313 µM
selectivity ratio [4]: 2.99
IC50 at 48 h [5]: 101 µM

CN(c1ccc(NC(=O)c2cccc(C(=N)N)c2)cc1OCc1cccc(C(F)(F)F)c1)S(=O)(=O)Cc1ccccc1
IC50 (Trypanosoma brucei [1]): 15.3 µM
selectivity ratio [2]: > 32.6
IC50 at 48 h [3]: > 500 µM
selectivity ratio [4]: 32.6
IC50 at 48 h [5]: > 500 µM

CN(c1ccc(NC(=O)c2cccc(C(=N)N)c2)cc1OCc1ccc(C(=N)N)cc1)S(=O)(=O)Cc1ccccc1
inhibition (Trypanosoma brucei [6]): Active
selectivity ratio [4]: 50000
IC50 at 48 h [5]: > 500 µM

N=C(N)Nc1ccc(NC(=O)c2ccc(Cl)c(Cl)c2)cc1OCc1ccc(C(F)(F)F)cc1
IC50 (Trypanosoma brucei [1]): > 50 µM
IC50 at 48 h [3]: > 500 µM
selectivity ratio [4]: 10
IC50 at 48 h [5]: > 500 µM

N=C(N)Nc1ccc(NC(=O)c2ccc(C(F)(F)F)cc2C(F)(F)F)cc1OCc1ccc(C(F)(F)F)cc1
IC50 (Trypanosoma brucei [1]): 18.2 µM
selectivity ratio [2]: 15.7
IC50 at 48 h [3]: 286 µM
selectivity ratio [4]: 27.5
IC50 at 48 h [5]: > 500 µM

COc1ccc(OC)c(COc2cc(NC(=O)c3ccc4c(c3)OCO4)ccc2NC(=N)N)c1
IC50 (Trypanosoma brucei [1]): > 50 µM
IC50 at 48 h [3]: > 500 µM
selectivity ratio [4]: 10
IC50 at 48 h [5]: > 500 µM

CN(c1ccc(NC(=O)c2ccc(C(=N)N)cc2)cc1OCc1ccc(C(F)(F)F)cc1)S(=O)(=O)C(F)(F)F
IC50 (Trypanosoma brucei [1]): > 50 µM
IC50 at 48 h [3]: > 500 µM
selectivity ratio [4]: 10
IC50 at 48 h [5]: > 500 µM

CCS(=O)(=O)N(C)c1ccc(NC(=O)c2cccc(C(=N)N)c2)cc1OCc1ccc(C(=N)N)cc1
IC50 (Trypanosoma brucei [1]): 0.59 µM
selectivity ratio [2]: 722
IC50 at 48 h [3]: 426 µM
selectivity ratio [4]: 847
IC50 at 48 h [5]: > 500 µM

COc1ccc(C(=O)Nc2ccc(NC(=N)N)c(OCc3cc(OC)ccc3OC)c2)cc1
IC50 (Trypanosoma brucei [1]): 0.899 µM
selectivity ratio [2]: > 556
IC50 at 48 h [3]: > 500 µM
selectivity ratio [4]: 211
IC50 at 48 h [5]: 190 µM

N=C(N)Nc1ccc(NC(=O)c2ccc(Cl)c(Cl)c2)cc1OCc1ccccc1C(F)(F)F
IC50 (Trypanosoma brucei [1]): 15.2 µM
selectivity ratio [2]: > 32.8
IC50 at 48 h [3]: > 500 µM
selectivity ratio [4]: 12.8
IC50 at 48 h [5]: 196 µM

N=C(N)Nc1ccc(NC(=O)c2ccc3c(c2)OCO3)cc1OCc1ccccc1C(F)(F)F
IC50 (Trypanosoma brucei [1]): > 50 µM
selectivity ratio [2]: < 9
IC50 at 48 h [3]: 450 µM
selectivity ratio [4]: 10
IC50 at 48 h [5]: > 500 µM

COc1ccc(C(=O)Nc2ccc(NC(=N)N)c(OCc3cc(C)ccc3C)c2)cc1
IC50 (Trypanosoma brucei [1]): 47.9 µM
selectivity ratio [2]: > 10.4
IC50 at 48 h [3]: > 500 µM
selectivity ratio [4]: 10.4
IC50 at 48 h [5]: > 500 µM

CN(c1ccc(NC(=O)c2ccc(C(=N)N)cc2)cc1OCc1ccc(C(F)(F)F)cc1)S(=O)(=O)Cc1ccccc1
IC50 (Trypanosoma brucei [1]): 28.4 µM
selectivity ratio [2]: > 17.6
IC50 at 48 h [3]: > 500 µM
selectivity ratio [4]: 17.6
IC50 at 48 h [5]: > 500 µM

N=C(N)Nc1ccc(NC(=O)c2ccc3c(c2)OCO3)cc1OCc1ccc(C(F)(F)F)cc1
IC50 (Trypanosoma brucei [1]): > 50 µM
selectivity ratio [2]: < 6.87
IC50 at 48 h [3]: 344 µM
selectivity ratio [4]: 0.54
IC50 at 48 h [5]: 27.2 µM

CN(c1ccc(NC(=O)c2cccc(C(=N)N)c2)cc1OCc1ccc(C(F)(F)F)cc1)S(=O)(=O)C(F)(F)F
IC50 (Trypanosoma brucei [1]): > 50 µM
IC50 at 48 h [3]: > 500 µM
selectivity ratio [4]: 10
IC50 at 48 h [5]: > 500 µM

CCCCCCOc1cc(NC(=O)c2ccc3c(c2)OCO3)ccc1NC(=N)N
IC50 (Trypanosoma brucei [1]): > 50 µM
selectivity ratio [2]: < 7.7
IC50 at 48 h [3]: 385 µM
selectivity ratio [4]: 9.2
IC50 at 48 h [5]: 460 µM

COc1ccc(C(=O)Nc2ccc(NC(=N)N)c(OCc3cccc(C(F)(F)F)c3)c2)cc1
IC50 (Trypanosoma brucei [1]): 27.4 µM
selectivity ratio [2]: 9.58
IC50 at 48 h [3]: 263 µM
selectivity ratio [4]: 3.71
IC50 at 48 h [5]: 102 µM

COc1ccc(OC)c(COc2cc(NC(=O)c3cc(C(F)(F)F)cc(C(F)(F)F)c3)ccc2NC(=N)N)c1
IC50 (Trypanosoma brucei [1]): > 50 µM
selectivity ratio [2]: < 6.13
IC50 at 48 h [3]: 307 µM
selectivity ratio [4]: 2.45
IC50 at 48 h [5]: 123 µM

CN(c1ccc(NC(=O)c2cccc(C(=N)N)c2)cc1OCc1ccc(C(F)(F)F)cc1)S(=O)(=O)Cc1ccccc1
IC50 (Trypanosoma brucei [1]): 13.8 µM
selectivity ratio [2]: > 36.3
IC50 at 48 h [3]: > 500 µM
selectivity ratio [4]: 36.3
IC50 at 48 h [5]: > 500 µM

Cc1ccc(C(F)(F)F)c(COc2cc(NC(=O)c3cccc(C(=N)N)c3)ccc2N(C)S(=O)(=O)C(F)(F)F)c1
IC50 (Trypanosoma brucei [1]): 0.22 µM
selectivity ratio [2]: 114
IC50 at 48 h [3]: 25 µM
selectivity ratio [4]: 3.9
IC50 at 48 h [5]: 0.86 µM

CCCCCCOc1cc(NC(=O)c2ccc(OC)cc2)ccc1NC(=N)N
IC50 (Trypanosoma brucei [1]): > 50 µM
IC50 at 48 h [3]: > 500 µM
selectivity ratio [4]: 5.17
IC50 at 48 h [5]: 259 µM

Cc1ccc(C)c(COc2cc(NC(=O)c3cc(C(F)(F)F)cc(C(F)(F)F)c3)ccc2NC(=N)N)c1
IC50 (Trypanosoma brucei [1]): 21 µM
selectivity ratio [2]: > 23.8
IC50 at 48 h [3]: > 500 µM
selectivity ratio [4]: 23.8
IC50 at 48 h [5]: > 500 µM

N=C(N)Nc1ccc(NC(=O)c2cc(C(F)(F)F)cc(C(F)(F)F)c2)cc1OCc1ccc(C(F)(F)F)cc1
IC50 (Trypanosoma brucei [1]): 16.9 µM
selectivity ratio [2]: 24.6
IC50 at 48 h [3]: 416 µM
selectivity ratio [4]: 29.6
IC50 at 48 h [5]: > 500 µM

N=C(N)Nc1ccc(NC(=O)c2cc(C(F)(F)F)cc(C(F)(F)F)c2)cc1OCc1ccccc1C(F)(F)F
IC50 (Trypanosoma brucei [1]): 45.1 µM
selectivity ratio [2]: > 11.1
IC50 at 48 h [3]: > 500 µM
selectivity ratio [4]: 10.7
IC50 at 48 h [5]: 481 µM

Cc1ccc(C)c(COc2cc(NC(=O)c3ccc(Cl)c(Cl)c3)ccc2NC(=N)N)c1
IC50 (Trypanosoma brucei [1]): 27.6 µM
selectivity ratio [2]: > 18.1
IC50 at 48 h [3]: > 500 µM
selectivity ratio [4]: 18.1
IC50 at 48 h [5]: > 500 µM
